Data reported in ChEMBL document CHEMBL1153502, “Investigation of the pharmacophore space of Severe Acute Respiratory Syndrome coronavirus (SARS-CoV) NTPase/helicase by dihydroxychromone derivatives” (Bioorg Med Chem Lett, 2009).

Assays:
[1] = molecular target: T1, Replicase polyprotein 1ab (Severe acute respiratory syndrome-related coronavirus, UniProt P0C6X7); experiment: Inhibition of ATPase activity of SARS coronavirus helicase assessed as phosphate release by malachite green assay
[2] = molecular target: T1, Replicase polyprotein 1ab; experiment: Inhibition of SARS coronavirus helicase assessed as duplex-DNA unwinding by FRET based assay

| Compound | IC50 [1] | IC50 [2] |
| --- | --- | --- |
| O=c1cc(CNCc2cccc(Cl)c2)oc2ccc(O)c(O)c12 | > 50 µM | > 50 µM |
| O=c1c(O)c(-c2ccc(O)c(O)c2)oc2cc(OCc3cccc(Cl)c3)cc(O)c12 | > 50 µM | 5.2 µM |
| O=c1cc(CNCc2ccc(Cl)cc2)oc2ccc(O)c(O)c12 | > 50 µM | > 50 µM |
| O=c1c(O)c(-c2ccc3c(c2)OCO3)oc2cc(OCc3ccc(Cl)cc3)cc(O)c12 | > 50 µM | 9.3 µM |
| N#Cc1cccc(COc2cc(O)c3c(=O)c(O)c(-c4ccc5c(c4)OCO5)oc3c2)c1 | 42.9 µM | 8.1 µM |
| O=c1c(O)c(-c2ccc(O)c(O)c2)oc2cc(OCc3ccc(Cl)cc3)cc(O)c12 | 20.9 µM | 4.1 µM |
| N#Cc1cccc(CNCc2cc(=O)c3c(O)c(O)ccc3o2)c1 | > 50 µM | > 50 µM |
| O=c1c(O)c(-c2ccc3c(c2)OCO3)oc2cc(OCc3cccc(Cl)c3)cc(O)c12 | > 50 µM | 15.4 µM |
| N#Cc1cccc(COc2cc(O)c3c(=O)c(O)c(-c4ccc(O)c(O)c4)oc3c2)c1 | 25.4 µM | 2.7 µM |
| O=c1c(O)c(-c2ccc3c(c2)OCO3)oc2cc(O)cc(O)c12 | > 50 µM | > 50 µM |
